The values below come from patent EP2272817A1, “PAI-1 INHIBITOR” (Institute of Medicinal Molecular Design, Inc., priority 2008, dated 2009).

Assay [1] concerns the target T1, recombinant human PAI-1 (Homo sapiens, UniProt P05121). As to the kind of experiment: biochemical. The note with it: read-out: Inhibition Rate of PAI Activity (%).
Assay [2] concerns the target T1, recombinant human PAI-1. The assay can be described thus: Test Example 2: Human PAI-1 Inhibitory Activity (pH 7.4 HEPES buffer, 10 minutes incubation with two-chain tPA). It counts as biochemical. On the set-up: purchased Molecular Innovations, Inc. To be noted: read-out: Inhibition Rate of PAI-1 Activity (%). The protocol: 0.1 M HEPES, 0.1 M NaCl. 1 mM EDTA. 0.1 % Polyethylene glycol 8,000 (Hampton Research Corporation),
2 mM Dimethyldecylphoshine oxide [Apo-10] (Fluka Corporation)

Molecules are shown by their SMILES.

T1 sequence (P05121 24-402): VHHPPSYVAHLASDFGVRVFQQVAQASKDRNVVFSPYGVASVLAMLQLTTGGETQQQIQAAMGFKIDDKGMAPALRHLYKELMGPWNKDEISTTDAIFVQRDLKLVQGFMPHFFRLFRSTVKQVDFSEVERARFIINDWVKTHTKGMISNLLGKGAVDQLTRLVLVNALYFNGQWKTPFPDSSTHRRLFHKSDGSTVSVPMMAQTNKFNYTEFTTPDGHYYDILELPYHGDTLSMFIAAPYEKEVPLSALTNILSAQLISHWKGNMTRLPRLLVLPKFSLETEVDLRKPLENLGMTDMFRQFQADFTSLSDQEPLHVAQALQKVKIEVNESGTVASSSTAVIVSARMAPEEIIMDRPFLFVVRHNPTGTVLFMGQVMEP

Take `Cc1cc(C)cc(COc2ccc(-c3ccc(OC(F)(F)F)cc3)cc2CC(=O)O)c1` [Compound 11]: at recombinant human PAI-1 [1], the inhibition at 5 µM was found to be 41%, the inhibition at 10 µM was 84% and the inhibition at 25 µM came to 99%.

Take `O=C(O)/C=C/c1cc(-c2ccc(OC(F)(F)F)cc2)ccc1Oc1ccc(OC(F)(F)F)cc1` [Compound 15]: on recombinant human PAI-1 [1], the inhibition at 5 µM was 23%, the inhibition at 10 µM was 47% and the inhibition at 25 µM is 94%.

In the case of `O=C(O)CCc1cc(-c2ccc(OC(F)(F)F)cc2)ccc1Oc1ccc(OC(F)(F)F)cc1` [Compound 16], at recombinant human PAI-1 [1], the inhibition at 5 µM was 23%, the inhibition at 10 µM worked out at 46% and the inhibition at 25 µM was 96%.

On to `O=C(O)CCc1cc(-c2ccc(OC(F)(F)F)cc2)ccc1OCc1ccc(F)cc1` [Compound 20], for which, at recombinant human PAI-1 [1], the inhibition at 10 µM stood at 10% and the inhibition at 25 µM turned out to be 53%.

Regarding `O=C(O)CCc1cc(-c2ccc(OC(F)(F)F)cc2)ccc1OCc1ccccc1C(F)(F)F` [Compound 21], at recombinant human PAI-1 [1], the inhibition at 10 µM came to 11% and the inhibition at 25 µM stood at 70%.

Take `O=C(O)CCc1cc(-c2ccc(OC(F)(F)F)cc2)ccc1OCc1ccc(-c2ccccc2)cc1` [Compound 29]: at recombinant human PAI-1 [1], the inhibition at 5 µM is 21%, the inhibition at 10 µM turned out to be 56% and the inhibition at 25 µM came out at 88%.

As to `O=C(O)/C=C/c1cc(-c2ccc(OC(F)(F)F)cc2)ccc1OCc1cccc(C(F)(F)F)c1` [Compound 57], on recombinant human PAI-1 [1], the inhibition at 5 µM stood at 24%, the inhibition at 10 µM stood at 53% and the inhibition at 25 µM turned out to be 82%.

In the case of `CCCCCOc1ccc(-c2ccc(OC(F)(F)F)cc2)cc1CN(CC(=O)O)c1ccc(C(C)(C)C)cc1` [Compound 647], on recombinant human PAI-1 [2], the inhibition at 0.1 µM was 27%, the inhibition at 0.3 µM turned out to be 43%, the inhibition at 1 µM came out at 95% and the inhibition at 3 µM worked out at 98%.

Take `CCCCCOc1cc(-c2ccc(OC(F)(F)F)cc2)ccc1CN(C(=O)C(=O)O)c1ccc(C(C)(C)C)cc1` [Compound 648]: at recombinant human PAI-1 [2], the inhibition at 0.1 µM turned out to be 4%, the inhibition at 0.3 µM was determined as 23%, the inhibition at 1 µM is 86% and the inhibition at 3 µM was 89%.

Take `CCCCCOc1cc(-c2ccc(OC(F)(F)F)cc2)ccc1CN(CC(=O)O)c1ccc(C(C)(C)C)cc1` [Compound 649]: at recombinant human PAI-1 [2], the inhibition at 0.1 µM came to 10%, the inhibition at 0.3 µM is 64%, the inhibition at 1 µM was 96% and the inhibition at 3 µM was 97%.

Take `CCCCCCCOc1cc(N(CCCCc2ccccc2)C(=O)C(=O)O)ccc1-c1ccc(OC(F)(F)F)cc1` [Compound 650]: at recombinant human PAI-1 [2], the inhibition at 0.1 µM is 16%, the inhibition at 0.3 µM turned out to be 40%, the inhibition at 1 µM is > 99% and the inhibition at 3 µM was > 99%.

For `COc1ccc(-c2ccc(OC(F)(F)F)cc2)cc1N(CCCCc1ccccc1)C(=O)C(=O)O` [Compound 651], on recombinant human PAI-1 [2], the inhibition at 0.1 µM stood at 0%, the inhibition at 0.3 µM came to 0%, the inhibition at 1 µM was found to be 15% and the inhibition at 3 µM turned out to be 74%.

On to `CCCCCOc1cc(N(CCCCc2ccccc2)C(=O)C(=O)O)ccc1-c1ccc(OC(F)(F)F)cc1` [Compound 654], for which, on recombinant human PAI-1 [2], the inhibition at 0.1 µM amounted to 4%, the inhibition at 0.3 µM turned out to be 19%, the inhibition at 1 µM is > 99% and the inhibition at 3 µM was > 99%.

With `CCCCCOc1ccc(-c2ccc(OC(F)(F)F)cc2)cc1N(CCCOCc1ccccc1)C(=O)C(=O)O` [Compound 655], on recombinant human PAI-1 [2], the inhibition at 0.1 µM was determined as 3%, the inhibition at 0.3 µM came to 0%, the inhibition at 1 µM came out at 44% and the inhibition at 3 µM was found to be 97%.

Consider `O=C(O)C(=O)N(CCCCc1ccccc1)c1cc(-c2ccc(OC(F)(F)F)cc2)ccc1OCCCC1CCCCC1` [Compound 656], for which, on recombinant human PAI-1 [2], the inhibition at 0.1 µM is 24%, the inhibition at 0.3 µM came to 64%, the inhibition at 1 µM worked out at 95% and the inhibition at 3 µM was determined as 88%.

As for `CCCCCN(C(=O)C(=O)O)c1cc(-c2ccc(OC(F)(F)F)cc2)ccc1OCCCOc1ccccc1` [Compound 657], at recombinant human PAI-1 [2], the inhibition at 0.1 µM amounted to 15%, the inhibition at 0.3 µM came out at 20%, the inhibition at 1 µM stood at 99% and the inhibition at 3 µM was > 99%.

Regarding `O=C(O)C(=O)N(CCCCc1ccccc1)c1cc(-c2ccc(OC(F)(F)F)cc2)ccc1OC1CCCC1` [Compound 658], at recombinant human PAI-1 [2], the inhibition at 0.1 µM is 9%, the inhibition at 0.3 µM amounted to 20%, the inhibition at 1 µM came out at 97% and the inhibition at 3 µM was > 99%.

As for `O=C(O)C(=O)N(CCCCc1ccccc1)c1cc(-c2ccc(OC(F)(F)F)cc2)ccc1OC1CCCCCC1` [Compound 659], at recombinant human PAI-1 [2], the inhibition at 0.1 µM stood at 12%, the inhibition at 0.3 µM was 26%, the inhibition at 1 µM is > 99% and the inhibition at 3 µM came to 96%.

Consider `O=C(O)C(=O)N(Cc1ccc2ccccc2c1)c1ccc(-c2ccc(OC(F)(F)F)cc2)cc1` [Compound 661], for which, on recombinant human PAI-1 [2], the inhibition at 0.1 µM was found to be 6%, the inhibition at 0.3 µM worked out at 11%, the inhibition at 1 µM worked out at 27% and the inhibition at 3 µM is > 99%.

As for `Cc1cc(C)cc(COc2ccc(-c3ccc(OC(F)(F)F)cc3)cc2N(CCCCc2ccccc2)C(=O)C(=O)O)c1` [Compound 662], at recombinant human PAI-1 [2], the inhibition at 0.1 µM stood at 18%, the inhibition at 0.3 µM worked out at 28%, the inhibition at 1 µM is 98% and the inhibition at 3 µM was 95%.

For `CC(C)(C)[C@H]1CC[C@H](N(C(=O)C(=O)O)c2ccc(-c3ccc(OC(F)(F)F)cc3)cc2)CC1` [Compound 665], at recombinant human PAI-1 [2], the inhibition at 0.1 µM came out at 9%, the inhibition at 0.3 µM was 8%, the inhibition at 1 µM is 67% and the inhibition at 3 µM is > 99%.

Regarding `CC(C)(C)[C@H]1CC[C@@H](N(C(=O)C(=O)O)c2ccc(-c3ccc(OC(F)(F)F)cc3)cc2)CC1` [Compound 666], on recombinant human PAI-1 [2], the inhibition at 0.1 µM amounted to 0%, the inhibition at 0.3 µM is 21%, the inhibition at 1 µM came out at 89% and the inhibition at 3 µM stood at 98%.

As for `CCCCCCCCCCN(C(=O)C(=O)O)c1ccc(-c2ccc(OC(F)(F)F)cc2)cc1` [Compound 669], on recombinant human PAI-1 [2], the inhibition at 0.1 µM was determined as 28%, the inhibition at 0.3 µM amounted to 34%, the inhibition at 1 µM was > 99% and the inhibition at 3 µM was > 99%.

As to `CCCCCOc1ccc(-c2ccc(OC(F)(F)F)cc2)cc1N(CCCCc1cc(C)ccc1C)C(=O)C(=O)O` [Compound 670], at recombinant human PAI-1 [2], the inhibition at 0.1 µM was 6%, the inhibition at 0.3 µM was found to be 55%, the inhibition at 1 µM was determined as 97% and the inhibition at 3 µM worked out at 94%.

Consider `O=C(O)C(=O)N(CCCCc1ccccc1)c1ccc(-c2ccc3ccccc3c2)cc1` [Compound 671], for which, at recombinant human PAI-1 [2], the inhibition at 0.1 µM is 26%, the inhibition at 0.3 µM worked out at 12%, the inhibition at 1 µM is 23% and the inhibition at 3 µM was found to be 92%.

Consider `CCCCCOc1ccc(-c2cc(C)cc(C)c2)cc1N(CCCCc1ccccc1)C(=O)C(=O)O` [Compound 672], for which, on recombinant human PAI-1 [2], the inhibition at 0.1 µM is 3%, the inhibition at 0.3 µM turned out to be 15%, the inhibition at 1 µM was found to be 92% and the inhibition at 3 µM was > 99%.

Consider `O=C(O)C(=O)N(CCCCc1ccccc1)c1ccc(N2CCCC2)c(-c2ccc(OC(F)(F)F)cc2)c1` [Compound 673], for which, on recombinant human PAI-1 [2], the inhibition at 0.1 µM amounted to 0%, the inhibition at 0.3 µM was found to be 15%, the inhibition at 1 µM was > 99% and the inhibition at 3 µM is > 99%.

As for `O=C(O)C(=O)N(CCCCc1ccccc1)c1ccc(N2CCCCCC2)c(-c2ccc(OC(F)(F)F)cc2)c1` [Compound 674], on recombinant human PAI-1 [2], the inhibition at 0.1 µM came to 5%, the inhibition at 0.3 µM came to 55%, the inhibition at 1 µM was > 99% and the inhibition at 3 µM stood at 98%.

Consider `O=C(O)C(=O)N(CCCCc1ccccc1)c1ccc(N2CCSCC2)c(-c2ccc(OC(F)(F)F)cc2)c1` [Compound 675], for which, on recombinant human PAI-1 [2], the inhibition at 0.1 µM worked out at 10%, the inhibition at 0.3 µM came out at 14%, the inhibition at 1 µM was determined as 95% and the inhibition at 3 µM was > 99%.

For `O=C(O)C(=O)N(CCCCc1ccccc1)c1cc(-c2ccc(OC(F)(F)F)cc2)ccc1OCCCCCO` [Compound 676], on recombinant human PAI-1 [2], the inhibition at 0.1 µM was determined as 7%, the inhibition at 0.3 µM is 4%, the inhibition at 1 µM came to 60% and the inhibition at 3 µM is > 99%.

Consider `CCCCCOc1ccc(-c2ccc(C)cc2)cc1N(CCCCc1ccccc1)C(=O)C(=O)O` [Compound 677], for which, on recombinant human PAI-1 [2], the inhibition at 0.1 µM came out at 19%, the inhibition at 0.3 µM was determined as 17%, the inhibition at 1 µM was found to be 93% and the inhibition at 3 µM was 96%.

`CCCCCOc1ccc(-c2ccc(C(C)C)cc2)cc1N(CCCCc1ccccc1)C(=O)C(=O)O` [Compound 678]: at recombinant human PAI-1 [2], the inhibition at 0.1 µM was 19%, the inhibition at 0.3 µM is 33%, the inhibition at 1 µM is 97% and the inhibition at 3 µM stood at 94%.

Regarding `CC(C)(C)[C@H]1CC[C@H](CN(C(=O)C(=O)O)c2ccc(-c3ccc(OC(F)(F)F)cc3)cc2)CC1` [Compound 679], on recombinant human PAI-1 [2], the inhibition at 0.1 µM is 6%, the inhibition at 0.3 µM was 9%, the inhibition at 1 µM amounted to 84% and the inhibition at 3 µM is > 99%.

As for `CC(C)(C)[C@H]1CC[C@@H](CN(C(=O)C(=O)O)c2ccc(-c3ccc(OC(F)(F)F)cc3)cc2)CC1` [Compound 680], at recombinant human PAI-1 [2], the inhibition at 0.1 µM was found to be 7%, the inhibition at 0.3 µM is 9%, the inhibition at 1 µM is 77% and the inhibition at 3 µM was > 99%.

In the case of `CCCCCOc1ccc(-c2ccc(OC(F)(F)F)cc2)cc1N(CC(=O)O)C(=O)CCCc1ccccc1` [Compound 682], at recombinant human PAI-1 [2], the inhibition at 0.1 µM came to 2%, the inhibition at 0.3 µM worked out at 5%, the inhibition at 1 µM stood at 32% and the inhibition at 3 µM was determined as 98%.
